Reference: ChEMBL document CHEMBL3351485 (ACS Med Chem Lett, 2014)
Activity calls are given as the source filed them. No cut-off for these calls is given here.

Legend:
[1] = molecular target: T1, Sodium- and chloride-dependent betaine transporter (Homo sapiens) (UniProt P48065); experiment: Inhibition of human BGT1 transfected in CHO cells assessed as [3H]GABA uptake at 100 uM after 20 mins by liquid scintillation counting analysis; assay type: cell-based
T1 sequence (whole entry): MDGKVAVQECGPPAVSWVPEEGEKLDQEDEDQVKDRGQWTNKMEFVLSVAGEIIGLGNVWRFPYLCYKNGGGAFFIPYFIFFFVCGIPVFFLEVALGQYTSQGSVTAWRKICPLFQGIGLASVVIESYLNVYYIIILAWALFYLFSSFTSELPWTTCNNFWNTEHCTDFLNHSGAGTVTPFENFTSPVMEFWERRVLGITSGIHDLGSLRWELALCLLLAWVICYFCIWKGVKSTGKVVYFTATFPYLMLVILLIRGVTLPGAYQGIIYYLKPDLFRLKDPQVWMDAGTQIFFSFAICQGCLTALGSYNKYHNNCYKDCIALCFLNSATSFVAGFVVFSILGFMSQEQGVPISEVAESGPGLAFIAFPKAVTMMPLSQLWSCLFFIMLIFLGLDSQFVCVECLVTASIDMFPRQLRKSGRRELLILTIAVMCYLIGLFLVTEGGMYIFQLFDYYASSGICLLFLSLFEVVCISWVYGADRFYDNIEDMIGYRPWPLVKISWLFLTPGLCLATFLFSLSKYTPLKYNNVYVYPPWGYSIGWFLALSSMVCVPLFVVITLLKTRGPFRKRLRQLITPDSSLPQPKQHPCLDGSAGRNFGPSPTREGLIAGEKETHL

[2] = molecular target: T2, Sodium- and chloride-dependent GABA transporter 1 (Homo sapiens, UniProt P30531); experiment: Inhibition of human GAT1 transfected in CHO cells assessed as [3H]GABA uptake at 100 uM after 20 mins by liquid scintillation counting analysis; assay type: cell-based
Target sequence in this assay (P30531 whole entry, looked up): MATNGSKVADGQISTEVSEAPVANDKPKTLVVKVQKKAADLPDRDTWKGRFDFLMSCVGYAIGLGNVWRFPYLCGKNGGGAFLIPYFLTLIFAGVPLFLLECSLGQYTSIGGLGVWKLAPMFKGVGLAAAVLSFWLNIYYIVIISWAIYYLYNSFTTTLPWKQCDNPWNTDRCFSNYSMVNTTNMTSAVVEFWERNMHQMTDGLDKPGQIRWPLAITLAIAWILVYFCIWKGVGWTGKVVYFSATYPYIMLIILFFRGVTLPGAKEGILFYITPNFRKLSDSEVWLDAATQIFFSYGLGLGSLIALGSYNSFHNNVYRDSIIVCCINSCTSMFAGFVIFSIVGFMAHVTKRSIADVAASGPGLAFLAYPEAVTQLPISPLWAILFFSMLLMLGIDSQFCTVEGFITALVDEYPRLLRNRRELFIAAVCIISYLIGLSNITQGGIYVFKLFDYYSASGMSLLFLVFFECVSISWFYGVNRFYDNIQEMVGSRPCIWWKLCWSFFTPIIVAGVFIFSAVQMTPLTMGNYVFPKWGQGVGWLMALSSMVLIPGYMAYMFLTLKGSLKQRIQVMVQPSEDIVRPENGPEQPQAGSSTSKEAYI

[3] = molecular target: T3, Sodium- and chloride-dependent GABA transporter 2 (Homo sapiens) (UniProt Q9NSD5); experiment: Inhibition of human GAT2 transfected in CHO cells assessed as [3H]GABA uptake at 100 uM after 20 mins by liquid scintillation counting analysis; assay type: cell-based
T3 sequence (whole entry): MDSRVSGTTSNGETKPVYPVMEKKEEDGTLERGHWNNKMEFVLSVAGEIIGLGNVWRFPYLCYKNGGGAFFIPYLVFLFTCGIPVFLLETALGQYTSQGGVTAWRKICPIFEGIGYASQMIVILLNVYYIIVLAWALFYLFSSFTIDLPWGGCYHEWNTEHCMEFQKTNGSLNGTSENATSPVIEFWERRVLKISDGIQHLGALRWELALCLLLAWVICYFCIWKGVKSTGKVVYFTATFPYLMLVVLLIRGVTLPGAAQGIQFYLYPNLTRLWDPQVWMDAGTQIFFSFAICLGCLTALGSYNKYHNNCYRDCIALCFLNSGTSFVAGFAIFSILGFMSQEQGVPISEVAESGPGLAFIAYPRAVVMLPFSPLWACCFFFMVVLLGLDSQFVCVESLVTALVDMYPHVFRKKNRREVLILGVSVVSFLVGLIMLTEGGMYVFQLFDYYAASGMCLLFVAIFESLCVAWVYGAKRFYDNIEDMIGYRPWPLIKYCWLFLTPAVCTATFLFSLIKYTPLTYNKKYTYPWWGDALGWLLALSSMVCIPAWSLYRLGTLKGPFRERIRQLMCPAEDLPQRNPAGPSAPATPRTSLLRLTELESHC

[4] = molecular target: T4, Sodium- and chloride-dependent GABA transporter 3 (Homo sapiens) (UniProt P48066); details: CHO, 100 uM
T4 sequence (whole entry): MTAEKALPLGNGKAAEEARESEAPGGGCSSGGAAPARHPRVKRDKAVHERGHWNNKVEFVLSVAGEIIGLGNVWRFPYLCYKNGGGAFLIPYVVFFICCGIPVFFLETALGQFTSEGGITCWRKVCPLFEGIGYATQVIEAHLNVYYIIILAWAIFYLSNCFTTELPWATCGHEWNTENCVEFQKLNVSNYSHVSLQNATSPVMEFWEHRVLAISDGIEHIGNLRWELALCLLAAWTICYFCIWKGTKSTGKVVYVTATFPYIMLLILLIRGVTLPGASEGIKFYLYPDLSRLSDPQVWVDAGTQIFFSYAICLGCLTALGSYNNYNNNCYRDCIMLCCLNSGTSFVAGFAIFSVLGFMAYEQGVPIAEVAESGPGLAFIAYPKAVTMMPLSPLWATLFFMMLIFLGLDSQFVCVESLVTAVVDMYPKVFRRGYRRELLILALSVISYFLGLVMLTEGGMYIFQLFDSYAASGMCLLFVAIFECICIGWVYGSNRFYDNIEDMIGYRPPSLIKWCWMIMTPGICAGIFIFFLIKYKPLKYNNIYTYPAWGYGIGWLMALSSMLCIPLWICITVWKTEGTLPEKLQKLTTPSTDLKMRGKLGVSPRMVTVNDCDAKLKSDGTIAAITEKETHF
Description: Inhibition of human GAT3 transfected in CHO cells assessed as [3H]GABA uptake at 100 uM after 20 mins by liquid scintillation counting analysis

[5] = molecular target: T2, Sodium- and chloride-dependent GABA transporter 1; experiment: Inhibition of human GAT1 transfected in CHO cells assessed as [3H]GABA uptake after 20 mins by liquid scintillation counting analysis; assay type: cell-based
Target sequence in this assay (P30531 whole entry): as the sequence (P30531 whole entry, looked up) above

[6] = molecular target: T5, Sodium- and chloride-dependent GABA transporter 2 (Homo sapiens, UniProt Q9NSD5); experiment: Inhibition of human GAT2 transfected in CHO cells assessed as [3H]GABA uptake after 20 mins by liquid scintillation counting analysis; assay type: cell-based
T5 sequence (Q9NSD5 whole entry): T3 sequence (whole entry)

[7] = molecular target: T6, Sodium- and chloride-dependent GABA transporter 3 (Homo sapiens, UniProt P48066); experiment: Inhibition of human GAT3 transfected in CHO cells assessed as [3H]GABA uptake after 20 mins by liquid scintillation counting analysis; assay type: cell-based
T6 sequence (P48066 whole entry): T4 sequence (whole entry)

[8] = molecular target: T7, Sodium- and chloride-dependent betaine transporter (Homo sapiens, UniProt P48065); experiment: Inhibition of human BGT1 transfected in CHO cells assessed as [3H]GABA uptake after 20 mins by liquid scintillation counting analysis; assay type: cell-based
T7 sequence (P48065 whole entry): T1 sequence (whole entry)

Row | SMILES | inhibition [1] | inhibition [2] | inhibition [3] | inhibition [4] | IC50 [5] [µM] | IC50 [7] [µM] | IC50 [8] [µM] | IC50 [6] [µM]
1 | NCCC(=O)O [BETA-ALANINE] | – | – | – | – | – | – | – | > 100
2 | COc1ccc(C(OCCN2CCC[C@H](C(=O)O)C2)(c2ccc(OC)cc2)c2ccc(OC)cc2)cc1 | – | – | – | – | > 100 | – | – | –
3 | COc1ccccc1C1(O)CCN(CCCn2c3ccccc3c3ccccc32)CC1 | – | – | – | – | 11.4 | 8.92 | – | 6.2

The next lines start with results.

Row | inhibition [1] | inhibition [2] | inhibition [3] | inhibition [4] | IC50 [5] [µM] | IC50 [7] [µM] | IC50 [8] [µM] | SMILES | IC50 [6] [µM]
4 | 63.9% | inactive | inactive | inactive | – | – | – | N[C@@]12CC[C@@H](C(=O)O)[C@@H]1C2 | –
5 | Active | – | – | Active | > 100 | 13.9 | 5.48 | N[C@H]1C[C@H]1CC(=O)O | 36.9
6 | 97.6% | 12.2% | 29% | 48.2% | > 100 | 76.3 | 0.59 | N[C@@]12CC[C@H](C(=O)O)[C@@H]1C2 | > 100
